Results on nine compounds are retold here after US12422427B2, “Compounds for treatment of diseases and methods of screening therefor” (Max-Planck-Gesellschaft zur Förderung der Wissenschaften …, priority 2018, dated 2025).

Each structure is given as a SMILES string.

In data set [1] the test system is HeLa cells expressing FUS GFP. Nature of the data set: HeLa cell compound dose responses (FUS GFP, arsenate stress). The class given is cell-based. How it is done: Small dilution steps rather than concentration replicates were selected as it provides greater statistical power from a set number of samples. Final DMSO concentration was 0.08% in all samples, and each plate included at least 12 control wells with 0.08% DMSO. Cytoplasmic FUS droplet number and nuclear/cytoplasm partition of FUS were analysed using custom macros in ImageJ. Nuclei were identified by intensity thresholding of the blue fluorescence image following a 5 px Gaussian blur. Cytoplasmic FUS droplets by intensity thresholding of the green image following a 10 px weight 0.9 unsharp filter masked by the thresholded nuclei, and nuclear FUS droplets by intensity thresholding of the green image following a 5 px weight 0.9 unsharp filter and 10 px rolling ball background subtraction masked to only include thresholded nuclei. The ratio of cytoplasmic FUS drops to nuclei was taken as cytoplasmic FUS droplets per cell per field of view, and p, the ratio of partition of FUS to the nucleus and the cytoplasm, was derived from a=Vn/vt, the ratio of nuclear to total green signal per field of view, where p=a/(1−a). […] Six fields of view were captured and analysed per condition.

Data set [2] relates to HeLa cells. Nature of the data set: 15N lipoamide uptake by HeLa cells measured by NMR. Type of data set: in vitro ADME. The following applies: for uptake of the lipoamide present in the medium: 100 μM, 1 h, 37° C., stressed or unstressed HeLa cells. On the procedure:
The concentration of lipoamide relative to protein required for an effect on condensate liquidity in vitro was higher than the EC50 on cells, on the order of 100 μM lipoamide with 1 μM FUS (FIGS. 1D-1E, FIGS. 5A-5E). In cells, FUS concentrations are high for a protein (low μM)^41 and the cellular EC50 was on the order of 10 μM (FIG. 2A, FIG. 3D). We also saw inverse effects of lipoamide on FUS-containing condensates in vitro (more, larger condensates) and in cells (fewer stress granules). To reconcile this difference and to understand the relevance of the effects in vitro in cells, we wanted to know the actual concentrations of compounds in cells. In principle, isotopic labelling allows direct monitoring of isotopically-labelled compounds even in complex environment through appropriate spectroscopy. To use this approach, ^15N-labelled lipoamide (FIG. 7A) was synthesised.
Uptake of ^15N lipoamide by cells from the medium was quantified by NMR following incubation of lipoamide at 37° C. for 1 h either in the absence or presence of HeLa cells (FIG. 7B). Cellular uptake was determined by calculating the difference between medium incubated with cells or without cells for combinations of either R-(+) or (±)-lipoamide and either unstressed or stressed cells (FIG. 7C). For one sample, stressed cells with R-(+)-lipoamide, we confirmed that strong signal from the cell fraction was consistent with uptake of a large proportion of lipoamide (FIG. 7C). Both R-(+) and ±-lipoamide measurements indicated uptake of 35±11% (n=3 and 2, respectively) of the lipoamide present in the medium. No significant difference was observed either for uptake of R-(+) compared to (±)-lipoamide or stressed compared to unstressed cells (FIG. 7D).
For analysis of ^15N lipoamide uptake by cells HeLa cells expressing FUS GFP were grown in 6 well plates to 10^6 cells/well in DMEM supplemented with 10% FCS. To simultaneously stress and treat cells, the medium was replaced with 0.6 ml medium supplemented with potassium arsenate and 100 μM ^15N racemic or R-(+)-lipoamide for 1 h at 37° C. High concentrations of compound were used to maximise the signal. […] Wells were prepared for all combinations of no compound (1% DMSO control), ^15N […] or ^15N R-(+)-lipoamide, with or without potassium arsenate and with or without cells. ^1H detected ^15N edited ^1H sensitivity enhanced HSQ was used to quantify ^15N lipoamide concentration (see Supplementary Information). Solvent, pH and temperature sensitivity of the primary amide proton chemical shifts were determined using dummy samples assembled from the appropriate solvent and added compounds.
^1H detected ^15N edited ^1H sensitivity enhanced HSQC NMR (referred to here as (^15N) ^1H) spectra were acquired on a narrow bore Varian solution state spectrometer operating with a fixed field strength of 14.1 T, equipped with a room-temperature probe.
The free induction decay was recorded for an acquisition time of 0.0624 and a sweep with of 8 kHz recorded over 1000 and a recovery delays of 1 s. […] The J coupling between the amide protons and the ^15N in H2O samples was determined to be 96 Hz, and so the transfer times of 1/4 J in the INEPT portions of the pulse sequence were set to 2.6 ms. […]

The subject of data set [3] is FUS GFP localisation in stressed HeLa cells. Nature of the data set: Ex vivo HeLa cell screen of FUS GFP localisation under arsenate stress. The class given is cell-based. Particulars: 10 μM compound 1 h pre-treatment, then 1 h 1 mM potassium arsenate. The text has this:
The inventors developed a cell-based screen using a HeLa cell line that stably expresses GFP-tagged FUS at near-endogenous levels. While not required for stress granule formation, FUS is a well-characterised protein with a domain structure typical of stress granule proteins. In the absence of cellular stress, FUS-GFP primarily localizes to the nucleus, where it is partially excluded from the nucleolus and localises to small puncta called paraspeckles (FIG. 1A). These are nuclear droplets implicated in retaining RNA in the nucleus for rapid stress response. Cells were pre-treated with 10 μM compound from a compound library for 1 h, then the cells were stressed with 1 mM potassium arsenate (still in the presence of compound) (FIG. 1B) and monitored FUS localization to stress granules. Arsenate disrupts antioxidant responses by reacting with thiol groups, blocks the tricarboxylic acid (TCA) cycle by reacting with the thiols in vital lipoyl moieties and causes general oxidative damage. In untreated stressed cells, FUS is partly exported to the cytoplasm where, in combination with other proteins and mRNA, it phase separates to form liquid-like stress granules surrounded by cytoplasm depleted in FUS (FIG. 1A).
Many compounds affected stress granule formation. Multi-parameter image analysis, including cytoplasmic puncta number, nuclear puncta number, and nuclear/cytoplasm partition, was used to rank compounds by strength of effect on FUS localisation in stressed cells (FIG. 1C). […] These were the polysome stabilising compound emetine, which prevents release of mRNA, and the heavy metal chelating compound dimercaprol (which should sequester the stressor). Edaravone, thought to be an antioxidant and used as an ALS therapeutic in Japan and the US, had no effect on FUS localization in arsenate-stressed cells.
The effect of compounds on FUS GFP localisation in stressed HeLa cells was screened in 384 well format. 4000 cells were seeded per well and incubated for 24 h, after which the medium was replaced with 40 μl fresh medium and compound added to a final concentration of 10 μM by acoustic dispensing (Labcyte Echo 550). The final concentration of DMSO in all samples was 0.1%. […]
For the initial screen FUS GFP signal was analysed using KNIME. […] Particle number and sum area, granularity at 9, 10 & 11 px (cytoplasm) or 1, 5, 6, 7, 8 & 9 px (nucleus) scale, texture at 10 px scale and integrated signal intensity were measured for the nucleus and cytoplasm in the green (FUS GFP) channel. Z scores (z=(x−μ)/σ where x is the observed value, μ the control mean and σ the control standard deviation) relative to the DMSO treated control wells on each plate were calculated for each of the parameters, and combined into the Mahalanobis distance.

Consider `O=C(O)CCCCC(S)CCS` (racemic) [(±)-dihydrolipoic acid, 6,8-dimercaptooctanoic acid], for which the “EC50 reducing stress granule number, compared among compounds” value in data set [1] (1 h 1 mM arsenate stress) was “comparable EC50”. As for `[15NH2]C(=O)CCCCC1CCSS1` (racemic) [±-lipoamide, ^15N (±)-Lipoamide], in data set [2], the “uptake of the lipoamide present in the medium” value was found to be 35±11%. Turning to `SCCCS` [1,3-propanedithol, 1,3-propanedithiol, reference compound], in data set [1] (up to 100 μM), the “effect on stress granule number” value is “no effect”. Consider `CC1=NN(c2ccccc2)C(=O)C1` [Edaravone], for which the “effect on stress granules / FUS localisation in stressed cells” value in data set [3] is on record as “no effect”. For `[15NH2]C(=O)CCCC[C@@H]1CCSS1` [R-(+)-lipoamide, ^15N R-(+)-Lipoamide], the “uptake of the lipoamide present in the medium” value in data set [2] was 35±11%. For `NC(=O)CCCCC1CCSS1` (stereo not drawn) [^15N lipoamide], in data set [2] (calculated from percentage uptake, number of cells and their volume), the average intracellular concentration is 5.0 ± 1.6 mM. With `OCC(S)CS` (stereo not drawn) [dimercaprol], the “effect on stress granules / FUS localisation in stressed cells” value in data set [3] is recorded as “reduction of stress granules”.

Regarding `CC[C@H]1CN2CCc3cc(OC)c(OC)cc3[C@@H]2C[C@@H]1C[C@H]1NCCc2cc(OC)c(OC)cc21` [emetine], the “effect on stress granules / FUS localisation in stressed cells” value in data set [3] was “reduction of stress granules”. In the case of `CC1=CC(=O)c2ccccc2C1=O` [menadione], in data set [3], the “effect on stress granules / FUS localisation in stressed cells” value is “did not reduce stress granule number”.
